Among the data in ChEMBL document CHEMBL1201862, “PubChem BioAssay data set” (2004) are AC50, IC50 and EC50 values, retold here.

Test [1] in a line: P. falciparum ATP4 D1247Y mutant growth inhibitors, dose response, NITD609-resistant line, SYBR Green, dry powder (AID 1159571).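 Also: parasites synchronized at ring stage by sorbitol before testing.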 It is filed as functional, cell-based.
Test [2] is described as follows: P. falciparum Dd2 growth inhibitors, dose response, SYBR Green, dry powder samples (AID 1159566).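 Also: potency for growth inhibition with lower SYBR green DNA signal.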 It is filed as functional, cell-based.
A short description of test [3]: HepG2 cell cytotoxicity, dose response, cytotoxicity control, plate reader, dry powder samples (AID 1159569).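 Also: inhibitor potency with signal falling toward the positive control level.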 The test is classed as functional, cell-based.
Test [4] can be described thus: P. falciparum Dd2 growth inhibitors, dose response, SYBR Green, cherry-picked samples (AID 1159567). It is filed as functional, cell-based.
Test [5] in a line: P. falciparum 3D7-ScDHODH growth inhibitors, dose response, SYBR Green, dry powder samples (AID 1159570).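 Also: parasite growth measured after 72 hours of compound exposure.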 It is filed as functional, cell-based.
A short description of test [6]: HepG2 cell cytotoxicity, dose response, cytotoxicity control, cherry-picked samples (AID 1159577). It is filed as functional, cell-based.
Test [7] has as its target Fatty acid synthase (Homo sapiens, UniProt P49327). Description: FAS thioesterase domain inhibitors, SAR follow-up, biochemical, endpoint fluorescence intensity, powder samples (AID 652164). The test is classed as functional.
The target in test [8] is Oxysterols receptor LXR-beta (Homo sapiens, UniProt P55055). It is filed as functional, cell-based.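 Also: agonist activity at LXR measured by a cell-based luminescence readout across a dose range, run as a counterscreen for daf-12 agonists; HEK293 cells with Gal4-LXR fusion and GAL4-driven luciferase reporter; potency for activation of Gal4-LXR reporter so compounds are agonists.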
Test [9] concerns the target Potassium channel subfamily K member 9 (Homo sapiens, UniProt Q9NPC2). Description: TASK3 (KCNK9) channel inhibitors, thallium flux, SAR follow-up, selectivity assay for TASK1 inhibitor project, cell-based, FluxOR thallium flux, concentration-response (AID 652211).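 Also: potency is for inhibitors of the channel.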 It is filed as functional.
Test [10] has as its target Potassium channel subfamily K member 3 (Homo sapiens, UniProt O14649). Description: TASK1 (KCNK3) potassium channel inhibitors, SAR follow-up, CHO cells, FluxOR thallium flux (AID 652212). The test is classed as functional.
Test [11] deals with Voltage-gated inwardly rectifying potassium channel KCNH2 (Homo sapiens, UniProt Q12809). Put plainly: hERG channel inhibition in selectivity testing, SAR follow-up, selectivity assay for TASK1 inhibitor project, FluxOR thallium flux, concentration-response, CHO cells (AID 652194). It is filed as functional, cell-based.
Test [12] in a line: Late stage results for the probe development effort to identify inhibitors of Plasmodium falciparum gametocytes: Luminescence-based cell-based high throughput dose response assay to identify inhibitors of viability of late stage Plasmodium falciparum gametocytes. It is filed as functional.
For test [13], the target named is RNA-editing ligase 1, mitochondrial (Trypanosoma brucei brucei, UniProt P86926). Description: TbREL1 ligase inhibitors, dose response, biochemical, fluorescence, Trypanosoma brucei (AID 1117295). It is filed as functional.
The target of test [14] is CAAX prenyl protease 2 (Homo sapiens, UniProt Q9Y256). Put plainly: human Rce1 protease inhibitors, dose response, biochemical, yeast membranes, quenched-peptide fluorescence, cherry-pick (AID 588849).
Test [15] has as its target Peroxisome proliferator-activated receptor gamma/Nuclear receptor corepressor 2 (Homo sapiens, UniProt P37231+Q9Y618). The test is classed as functional.
The nature of test [16]: cells.
The target of test [17] is Dual specificity tyrosine-phosphorylation-regulated kinase 1A (Rattus norvegicus, UniProt Q63470). The test is classed as biochemical, Homo sapiens.
In test [18] the target is T1, CAAX prenyl protease 2 (Saccharomyces cerevisiae S288c, UniProt Q03530).
T1 sequence (Q03530 whole entry): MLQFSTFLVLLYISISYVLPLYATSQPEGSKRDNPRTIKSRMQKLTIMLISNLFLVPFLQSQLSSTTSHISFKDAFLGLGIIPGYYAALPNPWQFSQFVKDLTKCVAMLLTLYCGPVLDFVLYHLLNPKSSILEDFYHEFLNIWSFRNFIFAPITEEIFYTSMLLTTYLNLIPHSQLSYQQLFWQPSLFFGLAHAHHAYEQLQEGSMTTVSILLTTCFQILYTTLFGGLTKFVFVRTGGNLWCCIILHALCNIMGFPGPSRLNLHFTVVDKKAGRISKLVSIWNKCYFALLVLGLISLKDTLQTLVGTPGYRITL
It is filed as biochemical.

Test [19] deals with Photoreceptor-specific nuclear receptor (Homo sapiens, UniProt Q9Y5X4). It is filed as functional.
Test [20] addresses Tyrosyl-DNA phosphodiesterase 2 (Homo sapiens, UniProt O95551). Description: human TDP2 enzyme inhibitors, dose response, biochemical, epi absorbance, IC50 (AID 743297).
Test [21] addresses Major prion protein (Homo sapiens, UniProt P04156). The test is classed as functional, cell-based.
The target in test [22] is T2, Small ubiquitin-related modifier 1 (Homo sapiens, UniProt P63165). Put plainly: inhibitors of SUMO1 peptide binding, dose response, biochemical, fluorescence polarization, uHTS hits (AID 624382). The settings on record: read-out: IC50_Mean. It is filed as functional. In general terms: Fluorescence polarisation rises when a labelled molecule tumbles more slowly, as on binding a larger partner.

Test [23] addresses T2, Small ubiquitin-related modifier 1. Description: inhibitors of SUMO1 partner interactions, dose response, biochemical, FRET (AID 624383). The test is classed as functional. Particulars: read-out: IC50_Mean.
The nature of test [24]: ADAM10 protease inhibitors, dose response, selectivity assay for ADAM17 exosite inhibitor project, biochemical, FRET peptide substrate, recombinant human ADAM10 (AID 743259).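 Also: ADAM10 enzyme cleaving a FRET peptide substrate.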
The nature of test [25]: Luminescence Cell-Based Dose Confirmation HTS to Identify Inhibitors of Platelet Dense Granule Release. [Related pubchem assays: 1663 (Primary HTS), 1678 (Summary of Project)]. The test is classed as functional.
Test [26] has as its target Luciferin 4-monooxygenase (Photinus pyralis, UniProt P08659). Description: firefly luciferase enzyme inhibitors, dose response, biochemical, luminescence (AID 1891).
Test [27] concerns the target Disintegrin and metalloproteinase domain-containing protein 17 (Homo sapiens, UniProt P78536). Put plainly: exosite inhibitors of ADAM17, dose response, biochemical (AID 743260).

Activity calls are given as the source filed them.

For orientation: AC50 means the concentration at which the activity in the assay is half-maximal. As to `C/C=C/c1ccc([C@H]2[C@@H](CO)N(CC3CCCC3)[C@@H]2CNC(=O)NC(C)C)cc1`, the AC50 in test [1] is 2.41 µM (active); in test [2], 1.91 µM (active); in test [3], 25.4 µM (active); in test [4], 2.71 µM (active); in test [5], 2.73 µM (active).

Consider `Cc1cccc(-c2ccc([C@@H]3[C@@H]4CN(C(=O)C5CCCC5)C[C@H]3N4)cc2)c1`, for which the figures for the half-maximal activity concentration (AC50) in [6] and in test [4] were 10.7 µM (active) and 4.39 µM (active), respectively.

As to `CCN(CC)S(=O)(=O)c1ccc(-c2csc(NC(=O)C3CCC3)n2)cc1`, the IC50 in [7] is 0.985 µM (active).

As usually defined, the EC50 is the concentration that produces a half-maximal response. In the case of `Cc1ccc(-c2csc(NC(=O)/C=C/c3ccco3)c2C(=O)O)cc1`, the EC50 in test [8] was > 67.6 µM (inactive).

Consider `COc1ccc(CC(=O)NCc2ccccc2-c2ccccc2C(=O)NCc2ccc(F)cc2F)cc1`, for which the IC50 in [9] was 3.2 µM (active); in test [10], 0.115 µM (active); in test [11] it was 36.7 µM (active).

For the compound `O=C(Nc1nccs1)c1cn(-c2ccccc2)nc1-c1cccnc1`, the IC50 in test [12] was > 74.4 µM (inactive).

Turning to `C=CCNC1=NC(c2cccc(F)c2)C(C(=O)OC)=C(C)N1Cc1cccc(C(F)(F)F)c1` (stereo not drawn), the IC50 in [13] was > 96.6 µM (inactive).

As to `N#CC(C#N)=C1NC(N)=C(C#N)C(c2ccccc2)=C1C#N`, the concentration at half-maximal activity (AC50) is 8.31 µM (active) in test [14], 4.56 µM (active) in [17] and > 100 µM (inactive) in test [18]. The IC50 in test [15] is 3.22 µM (active); in test [16], > 138 µM (inactive); in [19], 8.41 µM (active); in [20], > 128 µM (inactive); in [21] it was 1.92 µM (active); in [22], > 66.6 µM (inactive). Further, the IC50 in test [23] is 100 µM (inactive).

On to `Cc1ccccc1-c1noc(-c2ccc(O)cc2)n1`, for which the IC50 in [24] was 48.8 µM (inactive); in [27], > 69.5 µM (inactive). The results for the EC50 in [25] and in [26] were 0.623 µM (active) and 0.122 µM (active), respectively.
